In patent publication US9687553B2, “Polymeric nanocarriers with linear dual response mechanism” (priority 2010, dated 2017):

Legend:
[1] = Relaxivity versus time, bench top contrast agent analyzer; assay type: physicochemical
From the text: To probe the relationship between degradation and relaxivity further, real-time T1 measurements were taken of the polymer solutions using a Bruker minispec mq60 bench top contrast agent analyzer. This machine is able to take rapid T1 measurements over a long duration, allowing for real-time data to be collected. Following data collection, a relationship between T1 and relaxivity can be made, and the relaxivity can be plotted versus time. The relaxivity measurements were then normalized for direct comparison between the two polymer CAs.
Samples were first incubated at 37° C. and various pH values and then measured continuously over time.
To investigate the change in relaxivity over time at different pH values further, continuous T1 measurements were taken using a bench top contrast agent analyzer. Using this machine, the T1 time of a 200 μl solution in an NMR tube is able to be measured. Furthermore, the measurement duration is short, allowing for a more real-time investigation of the T1 time. Finally, the software allows for sequential measurements to be performed, allowing for over 24 h of continuous T1 data to be taken.
Solutions of both polymer contrast agents were prepared at the desired pH values and pre-incubated for 5 min at 37° C. prior to T1 measurements. […]

[2] = Gd chelate; cited from earlier work
HCT116 cells = assay: Transfection and EGFP expression, microscopy and flow cytometry; assay type: cell-based; conditions: 300 nM bafilomycin A1, nanocarrier delivery
Protocol: Expression and transfection efficiency of the HCT116 cells was tested by incubating them for 4 hr before washing excess nanocarriers and incubating cells in fresh media for 48 hr. […] PLGA-treated cells only had 2% of the cell population with signal intensity above background.
Immediate burst degradation and release of DNA from the dual pH-responsive nanocarriers only occurs in an environment of low pH. The endosome's low pH offers the appropriate stimulus to solubilize the polymer, resulting in an accelerated degradation via ketal hydrolysis. Bafilomycin A1, an inhibitor of V-ATPase, blocks the acidification of endosomes and has been previously used to characterize the mechanism of release of pH dependent polyplexes and nanocarriers. […] EGFP expression via nanocarrier delivery in HCT116 cells, measured by mean fluorescence, was affected by the presence of bafilomycin A1, causing 66% reduction in signal relative to non-treated cells (FIG. 37). […]
HCT116 cells were plated at a ˜50% density in a 24 well culture plate and allowed to attach overnight. […] The cells were then incubated for 48 hours and subsequently analyzed by fluorescence microscopy (Nikon) or flow-cytometry (Accuri C6) to detect green fluorescence. […] For flow cytometry, cells were first trysonized for […] followed by two washes with PBS and analyzed immediately. […]

Molecule | relaxivity as measured [1] | stability constant (log K) [2] | reduction in EGFP signal (mean fluorescence) relative to non-treated cells (HCT116 cells)
O=C([O-])CN(CCN(CC(=O)[O-])CC(=O)O)CCN(CC(=O)[O-])CC(=O)O.[Gd+3] [Gd-DTPA] | 3.64 ± 0.12 mM⁻¹ s⁻¹ | 22.46 | –
CO/C1=C\C(C)=C\[C@@H](C)[C@@H](O)[C@@H](C)C/C(C)=C/C=C/[C@H](OC)[C@@H]([C@@H](C)[C@@H](O)[C@H](C)[C@@]2(O)C[C@@H](O)[C@H](C)[C@@H](C(C)C)O2)OC1=O [bafilomycin A1] | – | – | 66%
Gd-DTPA-bisamide | – | 16.84 | –
